The source of these data is paper PMC5895817, “A Bowman-Birk type chymotrypsin inhibitor peptide from the amphibian, Hylarana erythraea” (Scientific Reports, 2018).

One data set concerns the target T1, human 20 S proteasome (Homo sapiens, UniProt P28074).
T1 construct: purchased Biochem, Boston, MA, USA
Briefly: Human 20 S proteasome inhibition (chymotrypsin-like activity). The format is biochemical. The note with it: chymotrypsin-like activity of human 20 S proteasome (7 nM working solution); substrate Suc-Leu-Leu-Val-Tyr-AMC; 50 mM HEPES, 0.035% SDS, pH 7.5; pre-incubation 15 min, 37 °C; Morrison equation; duplicate, repeated three times. As to the method: (§1) Phe-Pro-Arg-AMC, Succinyl-Ala-Ala-Pro-Phe-AMC and Suc-Leu-Leu-Val-Tyr-AMC (Abcam, Cambridge, UK) were used as substrates for trypsin, chymotrypsin and human 20 S proteasome respectively. 10 μl trypsin/chymotrypsin working solution (1 µg/ml) were added to the wells of a micro-titre plate containing 180 μl substrate and various inhibitor solutions. 10 μl human 20 S proteasome (Biochem, Boston, MA, USA) working solution (7 nM) in 50 mM HEPES buffer containing 0.035% SDS, pH 7.5 was added to the well of a micro-titre plate containing 180 μl substrate solution and each of various inhibitor solution. Each determination was carried out in duplicate. The rate of hydrolysis of the trypsin/chymotrypsin substrate was monitored subsequently and continuously, at 37 °C, by measuring the rate of increase of fluorescence in a FLUOstar OPTIMA multi-well plate reader (BMG Labtech, Ortenberg, Germany). For the 20 S proteasome, the rate of hydrolysis of the substrate was monitored after a pre-incubation for 15 min, at 37 °C. […] Each assay was repeated three times.

In a further data set the target is chymotrypsin (Bos taurus, UniProt P00766). Nature of the data set: Trypsin/chymotrypsin inhibition assay (Morrison): chymotrypsin. The format is biochemical. The procedure:
as §1

A further data set deals with T2, trypsin (Bos taurus, UniProt P00760).
T2 construct: gene PRSS1
T2 sequence (P00760 24-246): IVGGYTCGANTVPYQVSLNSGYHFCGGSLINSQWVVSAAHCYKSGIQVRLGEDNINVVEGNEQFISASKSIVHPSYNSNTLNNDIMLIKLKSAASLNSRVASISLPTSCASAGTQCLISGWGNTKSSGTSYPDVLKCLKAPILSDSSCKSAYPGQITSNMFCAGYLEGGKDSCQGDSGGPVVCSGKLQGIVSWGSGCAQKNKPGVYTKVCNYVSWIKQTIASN
Briefly: Trypsin/chymotrypsin inhibition assay (Morrison): trypsin. Particulars: substrate Phe-Pro-Arg-AMC, 37 °C, fluorescence, Morrison equation, each determination in duplicate, assay repeated three times. The format is biochemical. As to the method: as §1

The next data set has as its system HMEC-1. Nature of the data set: MTT cell viability, normal cell line HMEC-1. The format is cell-based. The note with it: 24 h, 5 replicates, three independent experiments. The procedure: The cancer cell line H157 (ATCC-CRL-5802, ATCC, Teddington, Middlesex, UK) and PC-3 (ATCC-CRL-1435, ATCC, Teddington, Middlesex, UK) were cultured in RPMI-1640 culture medium (Invitrogen, Paisley, UK) containing 10% FBS and 1% Penicillin-Streptomycin. MCF-7 (ATCC-HTB-22, ATCC, Teddington, Middlesex, UK) was cultured in DMEM culture medium (Invitrogen, Paisley, UK) containing 10% FBS and 1% Penicillin-Streptomycin. The normal cell line HMEC-1 (ATCC-CRL-3243, ATCC, Teddington, Middlesex, UK) was cultured in MCDB131 medium (Gibco, Paisley, UK) containing 10% FBS (foetal bovine serum, obtained from Sigma-Aldrich, St. Louis, MO, USA), 1% Penicillin-Streptomycin (Invitrogen, Paisley, UK), epidermal growth factor (10 ng/mL), hydrocortisone (1 μg/mL, obtained from Sigma-Aldrich, St. Louis, MO, USA) and glutamine (10 mM). Cells were seeded into a 96-well plate and incubated for 24 h (37 °C, 5% CO2) followed by starvation using serum-free medium. Sample solutions were loaded on this plate which was further incubated for 24 h. The 3-(4,5-dimethylthiazol-2-yl)-2,5-diphenyltetrazolium bromide (MTT) solution (5 mg/ml, 10 μl/well) was utilized to form the formazan after a 4 h incubation. Cell-produced-formazan was dissolved in DMSO (100 μl/well). The absorbance was recorded by using an ELx808^TM Absorbance Microplate Reader at 570 nm (BioTek Instruments, Inc., Winooski, VT, USA). […]

The next data set relates to horse erythrocytes. Nature of the data set: Haemolysis activity test. The format is cell-based. Particulars: 2% suspension in PBS, 1–512 μM, 37 °C, 4 h, absorbance 550 nm, 5 replicates, three independent experiments. As to the method:
Completely washed horse erythrocyte (TCS Biosciences Ltd., Buckingham, UK) suspension was prepared using phosphate-buffered saline (PBS). A series of peptide solutions were incubated with a 2% suspension of red blood cells at final concentrations of 1–512 μM at 37 °C for 4 h. After the incubation, 200 μl of each supernatant was transferred into a 96-well plate and the absorbance at 550 nm was measured with a Synergy HT plate reader (BioTek Instruments, Inc., Winooski, VT, USA). The BioTek’s Gen5^TM software was used to analyse the result. (Biolise BioTek EL808, Winooski, VT, USA). All the peptide concentrations and controls had 5 replicates in single 96-well plate and three independent experiments were performed.

Each structure is given as a SMILES string. “Also recorded” adds a separate entry of the source.

Broadly, the Ki is a dissociation constant, usually derived from enzyme kinetics or from competition with a known ligand. A lower Ki goes with a stronger hold on the target. For `CC[C@H](C)[C@H](NC(=O)[C@@H]1CSSC[C@H](NC(=O)CNC(=O)[C@H](CCCNC(=N)N)NC(=O)[C@H](CC(C)C)NC(=O)[C@@H](NC(=O)[C@@H](N)[C@@H](C)O)C(C)C)C(=O)N[C@@H](Cc2c[nH]c3ccccc23)C(=O)N[C@@H]([C@@H](C)O)C(=O)N[C@@H](Cc2ccccc2)C(=O)N[C@@H](CO)C(=O)N[C@@H](Cc2ccccc2)C(=O)N2CCC[C@H]2C(=O)N2CCC[C@H]2C(=O)N[C@@H](CCCCN)C(=O)N2CCC[C@H]2C(=O)N1)C(N)=O` [HECI, TVLRGCWTFSFPPKPCI-NH2], the inhibitory constant (Ki) at human 20 S proteasome was 8.55 ± 1.84 µM.
For the compound `CC[C@H](C)[C@H](NC(=O)[C@@H]1CSSC[C@H](NC(=O)CNC(=O)[C@H](CCCNC(=N)N)NC(=O)[C@H](CC(C)C)NC(=O)[C@@H](NC(=O)[C@@H](N)[C@@H](C)O)C(C)C)C(=O)N[C@@H](Cc2c[nH]c3ccccc23)C(=O)N[C@@H]([C@@H](C)O)C(=O)N[C@@H](CCCCN)C(=O)N[C@@H](CO)C(=O)N[C@@H](Cc2ccccc2)C(=O)N2CCC[C@H]2C(=O)N2CCC[C@H]2C(=O)N[C@@H](CCCCN)C(=O)N2CCC[C@H]2C(=O)N1)C(N)=O` [K^9-HECI, TVLRGCWTKSFPPKPCI-NH2], the Ki on chymotrypsin was determined as 13.9 ± 1.09 µM; at trypsin, 0.79 ± 0.04 µM. In addition, the “cytotoxicity / growth inhibition on normal cells HMEC-1” value in the data set with HMEC-1 is given as “low degree of cytotoxicity; also recorded: low degree of inhibition; also recorded: only slight cytotoxicity on HMEC-1”. Moreover, in the data set with horse erythrocytes, the haemolysis result is on record as “low degree of haemolytic activity; also recorded: low degree of haemolysis”.
